Legend:
[1] = molecular target: T1, PGl2 receptor (Homo sapiens, UniProt P43119); assay: Inhibitory activity on binding of ^3 H-iloprost to PGl2 receptor on human blood platelet membrane fraction; settings: human blood platelet membrane fraction (0.3 mg protein), 10 nM [^3 H]-iloprost, pH 7.4, 24° C., 30 min; read-out: IC50 (inhibition of [^3 H]-iloprost binding to PGl2 receptor)
T1 construct: human blood platelet membrane fraction (0.3 mg protein) was added; from tissue; host or cells: human blood platelets (membrane fraction)
T1 sequence (P43119 whole entry): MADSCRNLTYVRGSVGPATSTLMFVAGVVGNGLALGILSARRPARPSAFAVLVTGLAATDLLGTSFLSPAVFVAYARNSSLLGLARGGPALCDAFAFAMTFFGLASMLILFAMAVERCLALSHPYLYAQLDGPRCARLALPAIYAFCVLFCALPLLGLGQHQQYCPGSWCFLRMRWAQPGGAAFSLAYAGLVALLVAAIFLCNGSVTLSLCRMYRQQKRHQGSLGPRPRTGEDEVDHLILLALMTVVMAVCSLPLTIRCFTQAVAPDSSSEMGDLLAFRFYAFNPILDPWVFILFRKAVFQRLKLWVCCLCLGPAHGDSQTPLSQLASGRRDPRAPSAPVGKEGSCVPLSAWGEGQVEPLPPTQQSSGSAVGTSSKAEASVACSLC
Description: i) Inhibitory activity on binding of ^3 H-iloprost to PGl2 receptor on human blood platelet membrane fraction
50 mM Tris-HCl buffer (pH 7.4) containing 15 mM MgCl2, 5 mM EDTA and 10 nM [^3 H]-iloprost were used as reaction medium. To 0.2 ml of the reaction medium, human blood platelet membrane fraction (0.3 mg protein) was added with or without a test compound. The mixture was incubated at 24° C. for 30 min. After incubation, 4 ml of ice-cold 10 mM Tris-HCl buffer (pH 7.4) was added to the reaction mixture, and filtered through Whatman GF/B glass fiber filter, and washed 4 times with 4 ml of ice-cold 10 mM Tris-HCl buffer (pH 7.4) to separate bound and free [^3 H]-iloprost. After washing, the filter was dried and radioactivity was counted. Non-specific binding was obtained by performing parallel binding experiments in the presence of 10 μM non-labelled iloprost. Specific binding was calculated by subtracting the non-specific binding from the total binding.
The inhibitory effect of test compound was calculated from the following equation.
The percentage of inhibition (%)=100-(B1 /B0 ×100)
B1 : specific [^3 H]-iloprost binding in presence of test compound
B0 : specific [^3 H]-iloprost binding in absence of test compound

[2] = system: human blood platelet aggregation; assay: Inhibitory effect on human blood platelet aggregation; assay type: cell-based; settings: human platelet-rich plasma (5×10^5 platelets/mm^3), compound 1 min prior to ADP (4 μm); read-out: IC50 (inhibition of platelet aggregation)
Description: ii) Inhibitory effect on human blood platelet aggregation
Platelet-rich plasma (PRP) was prepared from human blood (5×10^5 platelets/mm^3), and a test compound was added to PRP 1 min prior to the addition of ADP (4 μm). The aggregation was monitored using a platelet aggregometer (NBS HEMA TRACER 601, Niko Bioscience, Japan).

O=C(O)COc1cccc2c1CCCC2CCCC(=O)N(c1ccccc1)c1ccccc1 (centres unmarked) [3 (dd), [1-(3-(N,N-Diphenylamino)carbonylpropyl)-1,2,3,4-tetrahydronaphthalen-5-yl]oxyacetic acid]
IC50 [1]: 1.7 µM
IC50 [2]: 5.1 µM

O=C(O)COc1cccc2c1CCC(CCC(=O)NC(c1ccccc1)c1ccccc1)C2 (centres unmarked) [3 (y), [2-(2-(Diphenylmethylamino)carbonylethyl)-1,2,3,4-tetrahydronaphthalen-5-yl]oxyacetic acid]
IC50 [1]: 1.8 µM
IC50 [2]: 7 µM

O=C(O)COc1cccc2c1CCC(CCC(=O)NN=C(c1ccccc1)c1ccccc1)C2 (centres unmarked) [3 (aa), [2-(2-(Diphenylmethylideneamino)aminocarbonylethyl)-1,2,3,4-tetrahydronaphthalen-5-yl]oxyacetic acid]
IC50 [1]: 6 µM

O=C(O)COc1cccc2c1CCCC2CCC(=O)NC(Cc1ccccc1)c1ccccc1 (centres unmarked) [3 (q), [1-(2-(1,2-Diphenylethyl)aminocarbonylethyl)-1,2,3,4-tetrahydronaphthalen-5-yl]oxyacetic acid]
IC50 [1]: 6.8 µM

O=C(O)COc1cccc2c1CCCC2CCCC(=O)N(Cc1ccccc1)Cc1ccccc1 (centres unmarked) [3 (bb), [1-(3-(N,N-Dibenzylamino)carbonylpropyl)-1,2,3,4-tetrahydronaphthalen-5-yl]oxyacetic acid]
IC50 [1]: 4.1 µM

CN(CC1CCc2c(cccc2OCC(=O)O)C1)C(=O)CN(Cc1ccccc1)c1ccccc1 (centres unmarked) [8 (b), [2-((N-Methyl-N-((N'-benzyl-N'-phenylamino)methylcarbonyl)amino)methyl)-1,2,3,4-tetrahydronaphthalen-5-yl]oxyacetic acid]
IC50 [1]: 3.1 µM
IC50 [2]: 8 µM

O=C(O)COc1cccc2c1CCCC2CCC(=O)NN(c1ccccc1)c1ccccc1 (centres unmarked) [3 (p), [1-(2-(N,N-Diphenylamino)aminocarbonylethyl)-1,2,3,4-tetrahydronaphthalen-5-yl]oxyacetic acid]
IC50 [1]: 0.0094 µM
IC50 [2]: 0.11 µM

CCCN(CCC1CCc2c(cccc2OCC(=O)O)C1)C(=O)CN(c1ccccc1)c1ccccc1 (centres unmarked) [10 (a), [2-(2-(N-Propyl-N-(diphenylaminomethylcarbonyl)amino)ethyl)-1,2,3,4-tetrahydronaphthalen-5-yl]oxyacetic acid]
IC50 [1]: 0.48 µM

CCCN(CC1CCc2c(cccc2OCC(=O)O)C1)C(=O)CN(c1ccccc1)c1ccccc1 (centres unmarked) [8 (c), [2-((N-Propyl-N-(diphenylaminomethylcarbonyl)amino)methyl)-1,2,3,4-tetrahydronaphthalen-5-yl]oxyacetic acid]
IC50 [1]: 0.18 µM
IC50 [2]: 2.5 µM

CCCN(CC1CCc2c(cccc2OCC(=O)O)C1)C(=O)CN(Cc1ccccc1)c1ccccc1 (centres unmarked) [8 (d), [2-((N-Propyl-N-((N'-benzyl-N'-phenylamino)methylcarbonyl)amino)methyl)-1,2,3,4-tetrahydronaphthalen-5-yl]oxyacetic acid]
IC50 [1]: 1.8 µM
IC50 [2]: 5.6 µM

O=C(O)COc1cccc2c1CCCC2CCCC(=O)NC(c1ccccc1)c1ccccc1 (centres unmarked) [3 (cc), [1-(3-Diphenylmethylaminocarbonylpropyl)-1,2,3,4-tetrahydronaphthalen-5-yl]oxyacetic acid]
IC50 [1]: 2.7 µM

O=C(O)COc1cccc2c1CCCC2CCC(=O)NC(c1ccccc1)c1ccccc1 (centres unmarked) [3 (o), [1-(2-Diphenylmethylaminocarbonylethyl)-1,2,3,4-tetrahydronaphthalen-5-yl]oxyacetic acid]
IC50 [1]: 0.21 µM
IC50 [2]: 0.4 µM

CCCN(CCC1CCc2c(cccc2OCC(=O)O)C1)C(=O)CN(Cc1ccccc1)c1ccccc1 (centres unmarked) [10 (b), [2-(2-(N-Propyl-N-((N'-benzyl-N'-phenylamino)methylcarbonyl)amino)ethyl)-1,2,3,4-tetrahydronaphthalen-5-yl]oxyacetic acid]
IC50 [1]: 8.4 µM

O=C(O)COc1cccc2c1CCCC2CC(=O)NN(c1ccccc1)c1ccccc1 (centres unmarked) [3 (j), [1-((N,N-Diphenylamino)aminocarbonyimethyl)-1,2,3,4-tetrahydronaphthalen-5-yl]oxyacetic acid]
IC50 [1]: 7.6 µM

O=C(O)COc1cccc2c1CCC(CCC(=O)N(Cc1ccccc1)Cc1ccccc1)C2 (centres unmarked) [3 (x), [2-(2-(N,N-Dibenzylamino)carbonylethyl)-1,2,3,4-tetrahydronaphthalen-5-yl]oxyacetic acid]
IC50 [1]: 2.7 µM

O=C(O)COc1cccc2c1CCCC2CCC(=O)N(Cc1ccccc1)Cc1ccccc1 (centres unmarked) [3 (m), [1-(2-Dibenzylaminocarbonylethyl)-1,2,3,4-tetrahydronaphthalen-5-yl]oxyacetic acid]
IC50 [1]: 0.32 µM

COC(=O)COc1cccc2c1CCC(CN(C)C(=O)CN(c1ccccc1)c1ccccc1)C2 (centres unmarked) [4 (a), Methyl [2-((N-methyl-N-(diphenylaminomethylcarbonyl)amino)methyl)-1,2,3,4-tetrahydronaphthalen-5-yl]oxyacetate]
IC50 [1]: 2.3 µM

CN(CCC1CCc2c(cccc2OCC(=O)O)C1)C(=O)CN(c1ccccc1)c1ccccc1 (centres unmarked) [10 (c), [2-(2-(N-Methyl-N-(diphenylaminomethylcarbonyl)amino)ethyl)-1,2,3,4-tetrahydronaphthalen-5-yl]oxyacetic acid]
IC50 [1]: 1.3 µM

O=C(O)COc1cccc2c1CCCC2CCC(=O)N(Cc1ccccc1)c1ccccc1 (centres unmarked) [3 (l), [1-(2-(N-Benzyl-N-phenylamino)carbonylethyl)-1,2,3,4-tetrahydronaphthalen-5-yl]oxyacetic acid]
IC50 [1]: 2.9 µM

O=C(O)COc1cccc2c1CCC(CC(=O)NN(c1ccccc1)c1ccccc1)C2 (centres unmarked) [3 (w), [2-((N,N-Diphenylamino)aminocarbonylmethyl)-1,2,3,4-tetrahydronaphthalen-5-yl]oxyacetic acid]
IC50 [1]: 0.02 µM
IC50 [2]: 0.62 µM

O=C(O)COc1cccc2c1CCCC2CCC(=O)N(c1ccccc1)c1ccccc1 (centres unmarked) [Example 3, [1-(2-Diphenylaminocarbonylethyl)-1,2,3,4-tetrahydronaphthalen-5-yl]oxyacetic acid]
IC50 [1]: 0.68 µM
IC50 [2]: 8.3 µM

O=C(O)COc1cccc2c1CCC(CC(=O)NC(c1ccccc1)c1ccccc1)C2 (centres unmarked) [3 (v), [2-(Diphenylmethylaminocarbonylmethyl)-1,2,3,4-tetrahydronaphthalen-5-yl]oxyacetic acid]
IC50 [1]: 0.12 µM
IC50 [2]: 1 µM

O=C(O)COc1cccc2c1CCC(CCC(=O)NN(c1ccccc1)c1ccccc1)C2 (centres unmarked) [3 (z), [2-(2-(N,N-Diphenylamino)aminocarbonylethyl)-1,2,3,4-tetrahydronaphthalen-5-yl]oxyacetic acid]
IC50 [1]: 0.1 µM
IC50 [2]: 2.3 µM

CN(CC1CCc2c(cccc2OCC(=O)O)C1)C(=O)NC(c1ccccc1)c1ccccc1 (centres unmarked) [Example 7, [2-(N-Methyl-N-(diphenylmethylaminocarbonyl)aminomethyl)-1,2,3,4-tetrahydronaphthalen-5-yl]oxyacetic acid]
IC50 [1]: 6.6 µM
